The values that follow come from PubChem BioAssay (NCI).

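A five-concentration, 48-hour dose response in 96-well plates underlies each endpoint, interpolated linearly between surrounding concentrations. TGI denotes the concentration required for complete inhibition of growth.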

Test systems include RXF 393 renal; MOLT-4 leukemia; U251 CNS; M14 melanoma; T-47D breast; MDA-MB-231 breast; SF-295 CNS; TK-10 renal; MCF7 breast; MALME-3M melanoma.
Test in all cases: DTP human tumour cell line panel, 48 h

As to `COC1/C=C/C(C)C(OC)CC(O)/C=C/C(C)C(C(C)C(OC)C(C)CCC(=O)C(C)C(C/C=C/N(C)C=O)OC)OC(=O)/C=C/C=C(\C)CC(OC)C(OC)C2=CC(=O)O[C@@H](C(C)C(OC)C1)[C@H]2O` (stereo not given in full), the TGI (usually the concentration at which net growth stops) was 0.078 µM in the test on RXF 393 renal; greater than 9.73 µM in the test with MOLT-4 leukemia; 0.12 µM in the test on U251 CNS; 0.0849 µM with M14 melanoma; 0.151 µM in the test with T-47D breast; 0.0835 µM in the test with MDA-MB-231 breast. Also, the TGI worked out at 0.0797 µM in the test on SF-295 CNS, 0.124 µM in the test on TK-10 renal, 0.17 µM with MCF7 breast and 0.115 µM with MALME-3M melanoma.

In the case of `CCOC(=O)c1ccc(N=C2SC(=S)N(c3ccc(F)cc3)C2=Nc2ccc(C(=O)OCC)cc2)cc1`, the TGI with RXF 393 renal stood at 23.3 µM; in the test on MOLT-4 leukemia it was 35.1 µM; in the test with U251 CNS it was 44.2 µM; with M14 melanoma, 25.6 µM; with T-47D breast, 22.7 µM; with MDA-MB-231 breast it was 25.2 µM. Further, the TGI in the test on SF-295 CNS was greater than 100 µM; in the test on TK-10 renal it was 36.6 µM; in the test with MCF7 breast, 42.2 µM; with MALME-3M melanoma it was 36.6 µM.

For `Cc1c2c(c(C)c3c[n+](C)ccc13)Oc1ccccc1O2`, the total growth inhibition concentration (TGI) was greater than 100 µM in the test on RXF 393 renal; 23.8 µM in the test with MOLT-4 leukemia; 22.3 µM with U251 CNS; greater than 59.7 µM in the test on M14 melanoma; 25.7 µM in the test with T-47D breast; greater than 69.8 µM in the test on MDA-MB-231 breast. In addition, the TGI with SF-295 CNS is greater than 80.4 µM; in the test on TK-10 renal, greater than 100 µM; in the test on MCF7 breast, greater than 63 µM; in the test with MALME-3M melanoma, 19.1 µM.

As for `CC1=C(C)C(=O)OC(C(C)(O)C2(O)CCC3(O)C4CC(Cl)C5(O)C(O)C=CC(=O)C5(C)C4CCC32C)C1` (stereo not given), the concentration for total growth inhibition (TGI) in the test with RXF 393 renal is 56.1 µM; with MOLT-4 leukemia it was 32.8 µM; in the test on U251 CNS, greater than 100 µM; with M14 melanoma, greater than 100 µM; in the test on T-47D breast, greater than 100 µM; with MDA-MB-231 breast it was greater than 100 µM. Further, the total growth inhibition concentration (TGI) in the test with SF-295 CNS, with TK-10 renal, in the test on MCF7 breast and in the test on MALME-3M melanoma was greater than 100 µM in each case.

With `NS(=O)(=O)c1nnc(NC(=O)CCC(=O)O)s1`, the TGI with RXF 393 renal, with MOLT-4 leukemia, in the test on U251 CNS, in the test with M14 melanoma, in the test on T-47D breast and in the test with MDA-MB-231 breast was greater than 100 µM each time. Also, the TGI with SF-295 CNS, with TK-10 renal, with MCF7 breast and in the test with MALME-3M melanoma was greater than 100 µM each time.

For `Cc1csc2c(P(=O)(OC(C)C)OC(C)C)c(-c3ccccc3)cn12`, the TGI in the test on RXF 393 renal amounted to 33.7 µM; with MOLT-4 leukemia, 31.4 µM; in the test on U251 CNS, 29.5 µM; in the test on M14 melanoma, 34.7 µM; in the test on T-47D breast it was 16.2 µM; in the test on MDA-MB-231 breast, 41.1 µM. Besides, the TGI is 31.1 µM with SF-295 CNS, 23.7 µM with TK-10 renal, 34.3 µM in the test with MCF7 breast and 36.1 µM in the test on MALME-3M melanoma.

Regarding `C1CNCCN2CCCNCCN(C1)CC2`, the TGI with RXF 393 renal, in the test on MOLT-4 leukemia, in the test with U251 CNS, in the test on M14 melanoma, in the test with T-47D breast and in the test on MDA-MB-231 breast was greater than 100 µM in each case. Also, the total growth inhibition concentration (TGI) with SF-295 CNS, in the test with TK-10 renal, in the test with MCF7 breast and in the test with MALME-3M melanoma was greater than 100 µM in each case.

Turning to `N#CC12COC3(CCCCC3C1(C#N)C#N)OC2=N` (stereo not given), the concentration for total growth inhibition (TGI) in the test on RXF 393 renal came out at 25.8 µM; with MOLT-4 leukemia it was 79.7 µM; in the test with U251 CNS it was 45.5 µM; in the test on M14 melanoma, 22.4 µM; in the test with T-47D breast it was 26.7 µM; with MDA-MB-231 breast it was 33.3 µM. Besides, the TGI was 43.1 µM in the test with SF-295 CNS, 31.6 µM with TK-10 renal, 29.5 µM in the test with MCF7 breast and 35.6 µM with MALME-3M melanoma.

Consider `O=C(N/N=C(/COc1cccc(Cl)c1)N=Cc1ccncc1)c1ccncc1`, for which the TGI with RXF 393 renal, with MOLT-4 leukemia, in the test with U251 CNS, with M14 melanoma, in the test on T-47D breast and with MDA-MB-231 breast was greater than 100 µM throughout. Besides, the TGI in the test with SF-295 CNS, in the test with TK-10 renal, in the test on MCF7 breast and in the test on MALME-3M melanoma was greater than 100 µM each time.

On to `N#CS/C(C(Cl)=C(Cl)Cl)=C(/Cl)[N+](=O)[O-]`, for which the total growth inhibition concentration (TGI) with RXF 393 renal worked out at 2.98 µM; in the test with MOLT-4 leukemia, 2.19 µM; with U251 CNS it was 30 µM; with M14 melanoma, 2.79 µM; in the test on T-47D breast, 4.86 µM; in the test with MDA-MB-231 breast, 11.9 µM. In addition, the TGI with SF-295 CNS was determined as 45.4 µM; in the test on TK-10 renal, 4.66 µM; in the test on MCF7 breast it was 29.3 µM; in the test on MALME-3M melanoma, 3.25 µM.

Regarding `COC(=O)C12CCC(C(=O)OC)(Cc3c(c4ccccc4n3S(=O)(=O)c3ccccc3)C1)C2=O` (stereo not given), the TGI in the test on RXF 393 renal is 24.1 µM; with MOLT-4 leukemia it was greater than 100 µM; in the test on U251 CNS it was greater than 100 µM; in the test on M14 melanoma, greater than 100 µM; with T-47D breast it was greater than 100 µM; in the test with MDA-MB-231 breast, greater than 100 µM. Moreover, the total growth inhibition concentration (TGI) with SF-295 CNS, in the test with TK-10 renal, with MCF7 breast and in the test with MALME-3M melanoma was greater than 100 µM in each case.

Consider `CCCCc1ccc(Nc2nc3c(ncn3C3OC(COC(C)=O)C(OC(C)=O)C3OC(C)=O)c(=O)[nH]2)cc1` (stereo not given), for which the TGI with RXF 393 renal is 41.7 µM; with MOLT-4 leukemia, 37.8 µM; with U251 CNS, 45.4 µM; with M14 melanoma, 41.2 µM; in the test on T-47D breast, 30 µM; in the test on MDA-MB-231 breast, 31.1 µM. In addition, the TGI in the test with SF-295 CNS is 53.1 µM; with TK-10 renal it was greater than 100 µM; with MCF7 breast it was 63.2 µM; in the test on MALME-3M melanoma, 36.8 µM.

For `CCCCC1Cc2cc(O)ccc2-c2n1c1cc(O)ccc1[n+]2C` (stereo not given) (tested in a mixture with another compound), the TGI in the test on RXF 393 renal was greater than 90.3 µM; with MOLT-4 leukemia it was greater than 100 µM; in the test with U251 CNS it was greater than 62.3 µM; in the test with M14 melanoma, greater than 100 µM; in the test on T-47D breast it was greater than 100 µM; in the test with MDA-MB-231 breast it was greater than 100 µM. In addition, the TGI in the test on SF-295 CNS was greater than 60.1 µM; in the test on TK-10 renal, greater than 100 µM; in the test with MCF7 breast it was greater than 72.7 µM; with MALME-3M melanoma it was 73.4 µM.

As to `CS(C)(=O)=N/C=C\C(=O)C(Cl)(Cl)Cl`, the concentration for total growth inhibition (TGI) with RXF 393 renal, in the test on MOLT-4 leukemia, in the test on U251 CNS, with M14 melanoma, in the test on T-47D breast and with MDA-MB-231 breast was greater than 100 µM throughout. In addition, the TGI in the test on SF-295 CNS, in the test on TK-10 renal, in the test with MCF7 breast and with MALME-3M melanoma was greater than 100 µM throughout.
